Laboratory results taken from US9573898B2, “Pyridine derivates and their use as Umami tastants” (Givaudan S.A., priority 2011, dated 2017).

Legend:
Format in all cases: in vivo, human
[1] = tested on: trained sensory panel composed of 20 women; assay: Potato chips tasting by a trained sensory panel (Example 6)
Description: Plain potato chips were prepared. • One part was flavoured with 1.2% sodium chloride (sample A). • One part was flavoured with 1.2% sodium chloride and 0.3% mono sodium glutamate (sample B). • One part was flavoured with 1.2% sodium chloride and 5 ppm 2-(2,3-dihydro-1H-inden-5-yloxy)-N-(pyridin-2-ylmethyl)acetamide (sample C).
The samples A, B and C were tasted by a trained sensory panel composed of 20 women aged between 30 and 60.

[2] = tested on: professional panel composed of 2 women and 3 men; assay: Tasting of NaCl solutions by a professional panel (Example 2)
Description: Two solutions were prepared: • A—a solution of 0.3% NaCl and 0.05% MSG, • B—a solution of 0.3% NaCl and 1 ppm of 2-(2,3-dihydro-1H-inden-5-yloxy)-N-(pyridin-2-ylmethyl)acetamide.
The samples were tasted by a professional panel composed of 2 women and 3 men aged between 30 and 60. The panel agreed that both solutions tasted umami.

[3] = tested on: small group of flavourists (2 male, 2 female); assay: Tomato soup tasting by flavourists (Example 5); details: tomato soup containing 2 ppm compound vs reference soup
Description: A tomato soup mix was prepared from 9.4 g of sodium chloride, 1 g of mono sodium glutamate, 0.08 g ribonucleotides (ex yeast), 32 g of tomato powder (ex Spreda), 25.1 g of glucose, 21 g of starch (Ultrasperse® 5 ex National Starch), 5 g of palm fat powder, 3 g of yeast powder, 1 g of onion powder, 0.15 g of carrot powder, 0.05 g of ground white pepper, 0.3 g celery extract powder, 0.05 g of ground laurel leaf powder, and 1.85 g of sucrose.
25 g of the well mixed ingredients was added to 250 g of boiling water and stirred until completely dissolved.
The reference soup was compared with a batch of the same soup containing 2 ppm of 2-(2,3-dihydro-1H-inden-5-yloxy)-N-(pyridin-2-ylmethyl)acetamide.

[4] = tested on: professional panel composed of 2 women and 3 men; assay: Tasting of NaCl/MSG/ribonucleotide solutions by a professional panel (Example 3); details: solution B (0.5% NaCl, 0.05% MSG, 0.010% ribonucleotide mixture, 2 ppm compound) vs solution A (0.5% NaCl, 0.15% MSG, 0.025% ribonucleotide mixture)
Description: Two solutions were prepared: • A—a solution of 0.5% NaCl, 0.15% MSG and 0.025% Ribonucleotide mixture, • B—a solution of 0.5% NaCl, 0.05% MSG, 0.010% Ribonucleotide mixture and 2 ppm of 2-(2,3-dihydro-1H-inden-5-yloxy)-N-(pyridin-2-ylmethyl)acetamide.
The samples were tasted by a professional panel composed of 2 women and 3 men aged between 30 and 60.

[5] = tested on: small group of flavourists (2 male, 2 female); assay: Diluted soy sauce tasting by flavourists (Example 7); details: sample A: Kikkoman soy sauce diluted 10 times, 1.5 ppm compound
Description: Kikkoman® soy sauce was diluted 10 times with tap water. One part of the base soy sauce was taken as the reference. To another part (called sample A) 1.5 ppm of 2-(2,3-dihydro-1H-inden-5-yloxy)-N-(pyridin-2-ylmethyl)acetamide was added. To a third part (called sample B) 0.5 ppm of 2-(2,3-dihydro-1H-inden-5-yloxy)-N-(pyridin-2-ylmethyl)acetamide and 1 ppm of 1-(2-hydroxy-4-methoxyphenyl)-3-(pyridin-2-yl)propan-1-one were added.

[6] = tested on: professional panel composed of 2 women and 2 men; assay: Tasting of NaCl/ribonucleotide solutions by a professional panel (Example 4); details: 10 ppm compound in 0.5% NaCl and 0.002% ribonucleotide mixture vs the same solution without compound
Description: Three solutions were prepared: • A—a solution of 0.5% NaCl and 0.002% Ribonucleotide mixture, • B—a solution of 0.5% NaCl, 0.002% Ribonucleotide mixture and 10 ppm of 2-(4-ethylphenoxy)-N-(pyridin-2-ylmethyl)acetamide, • C—a solution of 0.5% NaCl, 0.002% Ribonucleotide mixture and 10 ppm of 2-(4-isopropylphenoxy)-N-(pyridin-2-ylmethyl)acetamide.
The samples were tasted by a professional panel composed of 2 women and 2 men aged between 30 and 60.

[7] = solution B (0.3% NaCl, 1 ppm compound) vs solution A (0.3% NaCl, 0.05% MSG)

With `O=C(COc1ccc2c(c1)CCC2)NCc1ccccn1` [2-(2,3-dihydro-1H-inden-5-yloxy)-N-(pyridin-2-ylmethyl)acetamide] the panel preference ([1]; sample C (1.2% sodium chloride, 5 ppm compound) vs sample A (1.2% NaCl) and sample B (1.2% NaCl, 0.3% MSG)) was “preferred over the other two samples”, the taste description ([1]; sample C: 1.2% sodium chloride and 5 ppm compound) was “salty, umami, long lasting, savory” and the “further taste notes compared with solution A” value [2, 7] was “more succulence and sweetness and had more lingering notes”. For the same compound, the “umami strength compared with solution A” value [2, 7] was “slightly stronger umami”, the “umami taste of solution” value ([2]; solution B: 0.3% NaCl and 1 ppm compound) was “tasted umami” and the “complexity of taste compared with base soup” value [3] was “tasted more complex”. The “umami taste compared with base soup” value [3] was “more umami”, the “umami strength compared with solution A” value [4] was “equal umami strength” and the “complexity compared with base soy sauce” value [5] was “more complex”. For the same compound, the “umami and sweet taste compared with base soy sauce” value [5] was “more umami and slightly more sweet”.
`CCc1ccc(OCC(=O)NCc2ccccn2)cc1` [2-(4-ethylphenoxy)-N-(pyridin-2-ylmethyl)acetamide] was tested, and the “umami strength compared with solution A” value [6] was “stronger umami strength”.
With `CC(C)c1ccc(OCC(=O)NCc2ccccn2)cc1` [2-(4-isopropylphenoxy)-N-(pyridin-2-ylmethyl)acetamide] the “umami strength compared with solution A” value [6] was “stronger umami strength”.
In the case of `N[C@@H](CCC(=O)O)C(=O)[O-].[Na+]` [MSG, mono sodium glutamate, reference compound], the taste description ([1]; sample B: 1.2% sodium chloride and 0.3% mono sodium glutamate) was “salty and umami” and the “umami taste of solution” value ([2]; solution A: 0.3% NaCl and 0.05% MSG) was “tasted umami”.
